The source of these data is ChEMBL document CHEMBL2176876, “Discovery of potent and selective pyrazolopyrimidine janus kinase 2 inhibitors” (J Med Chem, 2012).

The nature of data set [1]: Oral bioavailability in Sprague-Dawley rat at 5 mg/kg. The class given is ADME, organism-based. The conditions noted are these: in vivo.
Data set [2] is described as follows: Volume of distribution at steady state in Sprague-Dawley rat at 0.1 to 1 mg/kg, iv. The arrangement: dose 0.1-1 mg/kg, route intravenous. To be noted: in vivo, read-out: Vdss. Type of data set: ADME, organism-based.
A short description of data set [3]: Permeability from apical to basolateral side in MDCK cells. Type of data set: ADME, cell-based, Canis lupus familiaris. To be noted: dog, read-out: permeability.
Data set [4] in a line: Oral bioavailability in Balb/C mouse at 5 mg/kg. Type of data set: ADME, organism-based. To be noted: in vivo.
A short description of data set [5]: Volume of distribution at steady state in Balb/C mouse at 0.5 mg/kg, iv. The conditions noted are these: in vivo, read-out: Vdss. Also on record: dose 0.5 mg/kg, route intravenous. The class given is ADME, organism-based.

Turning to `CNc1ccn2ncc(C(=O)Nc3cc(C)nn3-c3cccc(Cl)c3)c2n1`, in data set [1], the bioavailability was found to be 30%. For the same molecule, the Vd in data set [2] stood at 0.843 L/kg. In addition, in data set [3], the Papp A→B is 15.1 ×10⁻⁶ cm/s.
As for `Cn1cc(NC(=O)c2cnn3ccc(N)nc23)c(-c2cc(Cl)ccc2Cl)n1`, in data set [1], the bioavailability was found to be 63%. Further, the Vd in data set [2] stood at 1.08 L/kg. Besides, the Papp A→B in data set [3] worked out at 10.5 ×10⁻⁶ cm/s.
As to `Cn1cc(NC(=O)c2cnn3cccnc23)c(-c2cccc(Cl)c2)n1`, in data set [1], the bioavailability amounted to 124%. The Vd in data set [2] is 0.349 L/kg.
In the case of `Cn1cc(NC(=O)c2cnn3ccc(N)nc23)c(-c2cccc(Cl)c2)n1`, in data set [1], the bioavailability was 7%. The Vd in data set [2] is 0.355 L/kg.
`Cc1cc(NC(=O)c2cnn3cccnc23)n(-c2cccc(Cl)c2)n1`: the bioavailability in data set [1] came to 44%. Moreover, the Vd in data set [2] is 0.293 L/kg. In addition, in data set [3], the Papp A→B stood at 10.5 ×10⁻⁶ cm/s.
For `Cc1cc(NC(=O)c2cnn3ccc(N)nc23)n(-c2cccc(Cl)c2)n1`, the bioavailability in data set [4] came out at 8.6%; in data set [1], 1%. The figures for the Vd in data set [5] and in data set [2] were 0.27 L/kg and 0.185 L/kg, respectively. Besides, the Papp A→B in data set [3] is 8.4 ×10⁻⁶ cm/s.
